Test results taken from US20050222146A1, “N-substituted-n-sulfonylaminocyclopropane compounds and pharmaceutical use thereof” (priority 2003, published 2005).

Experiments:
Assay type in all cases: biochemical
MMP-1 = biological target: T1, MMP-1 (Homo sapiens, UniProt P03956); experiment: MMP-1 inhibitory action, Type I collagen Activity Measurement kit (FITC-labeled collagen type I); conditions: 37° C. for 3 hr, read-out: Experimental Example 2 IC50 MMP1
T1 sequence (P03956 100-469): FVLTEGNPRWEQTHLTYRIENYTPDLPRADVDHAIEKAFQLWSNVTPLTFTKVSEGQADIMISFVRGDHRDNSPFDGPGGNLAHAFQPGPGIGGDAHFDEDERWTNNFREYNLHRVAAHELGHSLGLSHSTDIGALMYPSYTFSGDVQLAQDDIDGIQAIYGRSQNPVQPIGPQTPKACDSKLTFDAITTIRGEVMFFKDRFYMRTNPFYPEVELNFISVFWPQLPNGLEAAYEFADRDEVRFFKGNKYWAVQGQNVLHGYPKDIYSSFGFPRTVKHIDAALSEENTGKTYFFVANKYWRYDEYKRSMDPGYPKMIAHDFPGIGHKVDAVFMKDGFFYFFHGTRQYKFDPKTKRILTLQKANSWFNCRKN

Recombinant Human MMP-13 = biological target: T2, Recombinant Human MMP-13 (Homo sapiens, UniProt P45452); experiment: MMP-13 inhibition, MMP-13 specific fluorescent substrate with quencher; conditions: synthetic substrate 7-MCA-Pro-CHA-Gly-NVal-His-Ala-DPA, 25° C. for 1 h; read-out: Experimental Example 3 IC50 MMP13
T2 construct: purchased R&D systems 511-MM
Description: Inhibitory activity of tested compounds on MMP-13 was measured using MMP-13 specific fluorescent substrate with quencher.
The enzyme and substrate were diluted with Tris-HCl buffer, and test compounds were diluted with dimethyl sulfoxide (DMSO).
Test compounds and the enzyme (Recombinant Human MMP-13: R&D systems, 511-MM) were added into 96-well plate. The reaction was initiated by adding synthetic substrate (7-MCA-Pro-CHA-Gly-NVal-His-Ala-DPA: enzyme systems products, Met-06) into the plate. After incubation at 25° C. for 1 h, the reaction was terminated by addition of reaction terminating solution containing acetic acid. Fluorescence intensity of each well was measured (Ex: 325 nm, Em: 405 nm) and the MMP-13 inhibitory activity of the compound in each well (%) was calculated based on the values of enzyme-free well and inhibitor-free well. The inhibitory activity of the compound was represented as IC50 (μM).

aggrecanase-1 = biological target: T3, aggrecanase-1 (Homo sapiens, UniProt O75173); experiment: Aggrecanase-1 inhibitory action, Particle Assay (GAG release from aggrecan-containing polyacrylamide particles); conditions: 37° C. for 15 hr, read-out: Experimental Example 1 IC50 AG1
T3 sequence (O75173 213-837): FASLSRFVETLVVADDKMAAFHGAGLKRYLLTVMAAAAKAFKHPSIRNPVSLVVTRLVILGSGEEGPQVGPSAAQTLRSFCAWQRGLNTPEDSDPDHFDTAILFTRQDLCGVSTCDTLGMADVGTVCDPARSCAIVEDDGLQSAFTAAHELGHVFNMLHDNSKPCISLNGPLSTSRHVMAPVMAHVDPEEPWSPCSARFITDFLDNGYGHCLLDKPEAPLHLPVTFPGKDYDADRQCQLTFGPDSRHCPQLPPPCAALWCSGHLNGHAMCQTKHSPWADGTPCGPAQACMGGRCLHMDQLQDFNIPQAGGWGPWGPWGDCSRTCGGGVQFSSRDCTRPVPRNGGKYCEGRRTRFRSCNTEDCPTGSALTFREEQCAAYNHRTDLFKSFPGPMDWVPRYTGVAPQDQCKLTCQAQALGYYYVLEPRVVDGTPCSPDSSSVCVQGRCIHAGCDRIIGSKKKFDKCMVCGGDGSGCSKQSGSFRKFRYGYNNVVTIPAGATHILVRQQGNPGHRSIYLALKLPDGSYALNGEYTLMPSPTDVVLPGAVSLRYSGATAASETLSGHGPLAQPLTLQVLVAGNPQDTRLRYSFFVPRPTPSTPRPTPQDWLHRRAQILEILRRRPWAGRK
Procedure, shortened: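 Enzyme and test compound (DMSO dilutions) in Tris-HCl buffer incubated with aggrecan-containing polyacrylamide particles at 37 °C for 15 hr. Released GAG in supernatant quantified with 1,9-dimethylmethylene blue at 595 nm against whale chondroitin sulfate standard; % inhibition versus enzyme-free and inhibitor-free wells gives IC50 (μM).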

IC50 (MMP-1) [nM] | IC50 (Recombinant Human MMP-13) [nM] | IC50 (aggrecanase-1) [nM] | SMILES
≥ 10000 | ≥ 1000 | ≥ 1000 | CN1CCN(C(=O)CN([C@]2(C(=O)O)C[C@H]2c2ccccc2)S(=O)(=O)c2ccc(-c3ccc(Cl)cc3)s2)CC1 [Example 2-17, (1R,2S)-1-{[5-(4-Chloro-phenyl)-thiophene-2-sulfonyl]-[2-(4-methyl-piperazin-1-yl)-2-oxo-ethyl]-amino}-2-phenyl-cyclopropanecarboxylic acid]
≥ 10000 | < 1000 | ≥ 1000 | O=C(O)[C@@]1(N(CCCO)S(=O)(=O)c2ccc(-c3ccc(Cl)cc3)s2)C[C@H]1c1ccccc1 [Example 2-18, (1R,2S)-1-[[5-(4-Chloro-phenyl)-thiophene-2-sulfonyl]-(3-hydroxy-propyl)-amino]-2-phenyl-cyclopropanecarboxylic acid]
≥ 10000 | < 1000 | ≥ 1000 | O=C(OCCN([C@]1(C(=O)O)C[C@H]1c1ccccc1)S(=O)(=O)c1ccc(-c2ccc(Cl)cc2)s1)N1CCOCC1 [Example 2-19, Morpholine-4-carboxylic acid 2-{((1R,2S)-1-carboxy-2-phenyl-cyclopropyl)-[5-(4-chloro-phenyl)-thiophene-2-sulfonyl]-amino}-ethyl ester]
≥ 10000 | ≥ 1000 | ≥ 1000 | O=C(OCCCN([C@]1(C(=O)O)C[C@H]1c1ccccc1)S(=O)(=O)c1ccc(-c2ccc(Cl)cc2)s1)N1CCOCC1 [Example 2-20, Morpholine-4-carboxylic acid 3-{((1R,2S)-1-carboxy-2-phenyl-cyclopropyl)-[5-(4-chloro-phenyl)-thiophene-2-sulfonyl]-amino}-propyl ester]
≥ 10000 | ≥ 1000 | ≥ 1000 | CN1CCN(C(=O)OCCCN([C@]2(C(=O)O)C[C@H]2c2ccccc2)S(=O)(=O)c2ccc(-c3ccc(Cl)cc3)s2)CC1 [Example 2-21, 4-Methyl-piperazine-1-carboxylic acid 3-{((1R,2S)-1-carboxy-2-phenyl-cyclopropyl)-[5-(4-chloro-phenyl)-thiophene-2-sulfonyl]-amino}-propyl ester]
≥ 10000 | ≥ 1000 | ≥ 1000 | O=C1CN(S(=O)(=O)c2ccc(-c3ccc(Cl)cc3)s2)C2(C(=O)O)CC2(c2ccccc2)CN1 (stereo not drawn) [Example 2-25, 1R*,7S*)-2-[5-(4-Chloro-phenyl)-thiophene-2-sulfonyl]-4-oxo-7-phenyl-2,5-diaza-bicyclo[5.1.0]octane-1-carboxylic acid]
≥ 10000 | ≥ 1000 | ≥ 1000 | CN1CC2(c3ccccc3)CC2(C(=O)O)N(S(=O)(=O)c2ccc(-c3ccc(Cl)cc3)s2)CC1=O (stereo not drawn) [Example 2-27, (1R*,7R*)-2-[5-(4-Chloro-phenyl)-thiophene-2-sulfonyl]-5-methyl-4-oxo-7-phenyl-2-,5-diaza-bicyclo[5.1.0]octane-1-carboxylic acid]
